Results as given in US12214015B2, “Use of c-type natriuretic peptide variants to treat osteoarthritis” (priority 2015, dated 2025).
Where no end group is shown, it is not given here.

How the values were obtained:
[1] = system: medial meniscal tear-induced osteoarthritis; test: Gait analysis in rat meniscal tear osteoarthritis model (Example 1); format: in vivo
Description: (§1) This rat model was used to determine the effect of CNP variants on slowing or repairing cartilage damage in osteoarthritis, where the CNP is delivered in response to joint injury or trauma. In this model a tear was introduced into the meniscus to provoke joint injury which results in cartilage degeneration and osteoarthritis (Janusz et al., Osteoarthritis Cartilage, 10:785-791, 2002). Male Lewis rats received a unilateral medial meniscectomy on Day 0; administration of control vehicle or the CNP variant Gly-CNP-37 began on Day 7; and the animals were euthanized on Day 29 for histopathological analysis of the affected joints. […] Therapeutic efficacy was evaluated by gait analysis and histopathological examination of chondrocyte death/cartilage degeneration in the knee.
Gait analysis was performed by applying ink to the ventral surface of the foot and documenting weight bearing during movement (footprints) across paper. Rear feet of rats were placed in ink and then rats were placed on paper and allowed to walk the full length. Gait was scored visually using the criteria in Table 5 (descriptions refer to diseased/affected leg).

[2] = system: medial meniscal tear-induced osteoarthritis; test: Rat medial meniscal tear osteoarthritis model, knee histopathology (Example 1, IA dosing from Day 7); format: in vivo; settings: for cartilage degeneration in the tibia: 3x/week for 3 weeks from Day 7, vs control rats
Procedure: A unilateral medial meniscal tear in 275-300 gram rats will result in rapidly progressive cartilage degeneration—characterized by chondrocyte and proteoglycan loss, fibrillation, osteophyte formation, and chondrocyte cloning. This model is performed by transection of the medial collateral ligament just below its attachment to the meniscus so that when the joint space opens, the meniscus is reflected toward the femur. The meniscus is cut at its narrowest point (away from the ossicles) taking care not to damage the tibial surface and making sure that the resulting transection produces separate, freely movable anterior and posterior meniscus halves.
Progressive cartilage degenerative changes occur and by 3-6 weeks post-surgery, tibial cartilage degeneration may be focally severe on the outer ⅓ of the tibia with degenerative changes of lesser severity in the middle and inner ⅓. Osteophytes are ultimately quite large (medial tibia) and progressively increase in size. The model is progressive and results in total cartilage loss (to eburnated bone) in […] in virtually all rats, with lesions that are reasonably consistent. […] Due to the rapid progression of cartilage degeneration, protective effects are not always apparent in the outer ⅓ of the tibial cartilage, although zonal analysis may reveal effects of treatment in the middle and inner ⅓. Substantial subchondral and epiphyseal bone changes occur in the medial tibia subjacent to the areas of greatest lesion severity. These range in magnitude and type from increased basophilia of the calcified cartilage layer with small fractures into subchondral bone to overt collapse of articular cartilage into areas of bone resorption in the epiphysis with surrounding sclerosis of bone. Therefore, this model offers the opportunity to evaluate not only chondroprotective effects of agents but also bone preserving activities. The model is of relatively short duration and animals are very consistent in their response to the surgery.
as §1
In particular, surgery animals were anesthetized with isoflurane and the right knee and lower leg area were prepared for surgery. For the meniscal tear, a skin incision was made over the medial aspect of the knee and the medial collateral ligament was transected after being exposed by blunt dissection. The medial meniscus was cut through the full thickness to simulate a complete tear and the wound closed. Ninety minutes (90 min) post-surgery, animals were treated with a dose of Acetaminophen (100 mg/kg, PO) in 1% CMC (2 mL/kg, 50 mg/mL). A follow-on dose was given 24 hours post-surgery (as needed).
For histopathological analysis the operated joints were harvested from the euthanized rats. Following 4-6 days in 5% formic acid decalcifier, the operated joints are cut into two approximately equal halves in the frontal plane and embedded in paraffin. Sections were cut from each operated right knee at approximately 160 μm steps and stained with toluidine blue. […]

[3] = system: medial meniscal tear-induced osteoarthritis; test: Rat medial meniscal tear osteoarthritis model, knee histopathology (Example 2, IA or SC); format: in vivo
NPR-B [4] = molecular target: T1, NPR-B (Homo sapiens, UniProt P20594); settings: cited from earlier work
T1 sequence (P20594 23-1047): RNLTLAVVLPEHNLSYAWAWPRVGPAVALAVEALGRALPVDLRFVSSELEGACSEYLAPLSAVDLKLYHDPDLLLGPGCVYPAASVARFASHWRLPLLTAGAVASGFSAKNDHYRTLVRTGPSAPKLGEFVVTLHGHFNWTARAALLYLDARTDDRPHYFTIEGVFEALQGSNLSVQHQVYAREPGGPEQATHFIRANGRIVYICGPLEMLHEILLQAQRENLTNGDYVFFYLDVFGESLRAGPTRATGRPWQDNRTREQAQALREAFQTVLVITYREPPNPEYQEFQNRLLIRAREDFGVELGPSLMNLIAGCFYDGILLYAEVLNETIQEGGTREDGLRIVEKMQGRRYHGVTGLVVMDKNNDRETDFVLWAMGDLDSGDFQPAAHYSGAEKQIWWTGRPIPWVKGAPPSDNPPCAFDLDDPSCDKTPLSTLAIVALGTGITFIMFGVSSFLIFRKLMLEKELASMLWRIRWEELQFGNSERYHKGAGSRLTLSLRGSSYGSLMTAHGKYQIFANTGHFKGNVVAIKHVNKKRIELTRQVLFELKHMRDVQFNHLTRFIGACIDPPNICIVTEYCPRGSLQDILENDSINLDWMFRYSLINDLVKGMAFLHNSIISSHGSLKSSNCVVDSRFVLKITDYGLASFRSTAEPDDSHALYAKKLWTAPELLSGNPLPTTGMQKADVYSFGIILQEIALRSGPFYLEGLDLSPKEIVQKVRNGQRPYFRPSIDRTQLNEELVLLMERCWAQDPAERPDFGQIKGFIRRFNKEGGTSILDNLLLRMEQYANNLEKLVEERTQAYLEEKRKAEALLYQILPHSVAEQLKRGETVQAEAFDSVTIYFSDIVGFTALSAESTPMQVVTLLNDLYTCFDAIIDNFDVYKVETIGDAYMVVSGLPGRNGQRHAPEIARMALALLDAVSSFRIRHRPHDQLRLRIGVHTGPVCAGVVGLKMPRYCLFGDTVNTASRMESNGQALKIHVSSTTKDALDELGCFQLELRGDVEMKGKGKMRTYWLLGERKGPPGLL

NEP = NEP (Homo sapiens, UniProt P08473); settings: NEP digestion for 2.5 minutes in vitro; Cys6-Phe7 and Gly8-Leu9 slightly most labile
[5] = clearance by NEP and NPR-C; cited from earlier work
NPR-C = NPR-C (Homo sapiens, UniProt P17342); settings: read-out: affinity to NPR-C; cited from earlier work
NPR-B [6] = molecular target: T1, NPR-B; settings: read-out: affinity to NPR-B; cited from earlier work

Sequence of NEP (P08473 whole entry): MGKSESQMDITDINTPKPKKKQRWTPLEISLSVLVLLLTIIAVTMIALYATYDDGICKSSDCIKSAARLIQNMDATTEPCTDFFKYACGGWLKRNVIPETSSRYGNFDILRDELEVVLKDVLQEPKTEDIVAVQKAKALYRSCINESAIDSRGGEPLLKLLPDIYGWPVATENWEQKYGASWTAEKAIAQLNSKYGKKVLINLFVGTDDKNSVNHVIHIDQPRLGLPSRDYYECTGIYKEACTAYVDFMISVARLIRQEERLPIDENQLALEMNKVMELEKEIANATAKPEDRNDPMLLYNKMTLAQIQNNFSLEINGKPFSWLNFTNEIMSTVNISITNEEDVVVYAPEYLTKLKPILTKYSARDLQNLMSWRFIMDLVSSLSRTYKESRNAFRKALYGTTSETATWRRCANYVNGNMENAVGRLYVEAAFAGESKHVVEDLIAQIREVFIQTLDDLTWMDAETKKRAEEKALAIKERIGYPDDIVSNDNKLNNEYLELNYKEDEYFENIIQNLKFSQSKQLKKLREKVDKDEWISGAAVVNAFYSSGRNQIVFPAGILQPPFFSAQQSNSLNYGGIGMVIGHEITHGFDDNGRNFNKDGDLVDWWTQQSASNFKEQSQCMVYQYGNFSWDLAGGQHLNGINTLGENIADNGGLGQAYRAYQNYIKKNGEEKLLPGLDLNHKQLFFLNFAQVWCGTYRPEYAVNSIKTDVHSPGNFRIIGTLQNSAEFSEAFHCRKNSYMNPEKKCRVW
Sequence of NPR-C (P17342 27-541, species assumed): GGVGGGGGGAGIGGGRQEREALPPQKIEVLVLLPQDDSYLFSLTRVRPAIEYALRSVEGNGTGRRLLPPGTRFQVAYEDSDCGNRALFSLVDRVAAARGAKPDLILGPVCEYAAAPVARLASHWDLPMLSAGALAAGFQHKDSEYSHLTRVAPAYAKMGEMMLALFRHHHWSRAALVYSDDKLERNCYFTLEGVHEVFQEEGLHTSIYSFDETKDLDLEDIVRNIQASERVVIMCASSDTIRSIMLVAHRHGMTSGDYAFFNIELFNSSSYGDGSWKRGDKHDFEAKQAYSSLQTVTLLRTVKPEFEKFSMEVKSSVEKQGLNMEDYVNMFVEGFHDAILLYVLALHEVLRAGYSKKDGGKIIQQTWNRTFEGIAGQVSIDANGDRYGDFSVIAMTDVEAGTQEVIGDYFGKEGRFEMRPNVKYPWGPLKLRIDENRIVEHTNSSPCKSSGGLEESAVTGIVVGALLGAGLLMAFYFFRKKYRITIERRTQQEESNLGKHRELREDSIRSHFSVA

GQEHPNARKYKGANKKGLSKGCFGLKLDRIGSMSGLGC (ends and bridges not checked; cysteine pairing not given here) [Gly-CNP-37]
gait score Area Under the Curve (AUC) ([1]; higher dose IA): gait score being lower for both treated populations as compared to the untreated controls | mobility and gait (gait score) ([1]; higher or lower dose IA, approximately day 15 to day 28): improvement in mobility and gait | gait score Area Under the Curve (AUC) ([1]; lower dose IA): decreased gait score to a greater extent than the higher CNP dose | medial growth plate thickness ([2]; 35.5 μg IA): a reduction in medial thickness, but not a significant reduction | Total Joint Score without Femur ([2]; 35.5 μg/dose IA): improved Total Joint Score without Femur, albeit to a lesser extent as compared to the higher dose | damage to the calcified cartilage and subchondral bone ([2]; 35.5 μg/dose IA): reduced damage to the calcified cartilage and subchondral bone, but to a lesser extent than the higher dose | cartilage degeneration in the tibia ([2]; 35.5 μg/dose IA): significant reduction | medial growth plate thickness ([2]; 110 μg IA): significantly reduced | Total Joint Score without Femur ([2]; 110 μg/dose IA): significantly reduced | cartilage degeneration in the tibia ([2]; 110 μg/dose IA): significant reduction | reduction of tibial osteophyte measurement ([2]; 110 μg/dose IA, p<0.05): approximately 24% | reduction of tibial osteophyte score ([2]; 110 μg/dose IA, p<0.05): approximately 34% | damage to the calcified cartilage and subchondral bone, score ([2]; 110 μg/dose IA, vehicle approximately 2.4): ~1.3 | improvement in substantial tibial cartilage degeneration (width) ([2]; Gly-CNP-37 treated animals (IA)): greater than 50% | depth ratio (lesion depth / total depth), medial tibia ([2]; Gly-CNP-37 treated groups (IA) vs vehicle): improved | Total Joint Score with Femur ([2]; both doses IA): decreases total joint score at both doses, but not to a significant level | medial tibial subchondral/epiphyseal trabecular bone thickening/sclerosis ([2]; both doses IA vs vehicle, not significant): observable decrease | growth plate thickness, medial minus lateral difference ([2]; higher dose IA): significantly reduced | collagen damage across the medial tibial plateau ([2]; lower and higher doses IA vs untreated controls): fewer areas with severe, marked and moderate degeneration | growth plate thickness, medial minus lateral difference ([2]; lower dose IA): reduced thickness of the growth plate, but not to the same extent as the higher dose | width of the cartilage affected by any degeneration ([2]; treated groups (IA) vs vehicle): improved | Total Joint Score without Femur ([3]; 105 μg IA): significant reduction | effects on histopathology lesions of medial meniscal tear-induced osteoarthritis ([3]; IA, Pro-Gly-CNP-37 35.5 and 105 μg, Gly-CNP-37 105 μg): significant beneficial effects

G19R mutation in CNP22: CNP22 with a G19R substitution (GLSKGCFGLKLDRIGSMSRLGC; ends and bridges not checked; cysteine pairing not given here; UniProt P23582 105-126, looked up, variant G19R)
NPR-B signaling activity (NPR-B [4]): does not result in a significant loss

CC[C@H](C)[C@@H]1NC(=O)[C@H](CCCNC(=N)N)NC(=O)[C@H](CC(=O)O)NC(=O)[C@H](CC(C)C)NC(=O)[C@H](CCCCN)NC(=O)[C@H](CC(C)C)NC(=O)CNC(=O)[C@H](Cc2ccccc2)NC(=O)[C@@H](NC(=O)CNC(=O)[C@H](CCCCN)NC(=O)[C@H](CO)NC(=O)[C@H](CC(C)C)NC(=O)CN)CSSC[C@@H](C(=O)O)NC(=O)CNC(=O)[C@H](CC(C)C)NC(=O)CNC(=O)[C@H](CO)NC(=O)[C@H](CCSC)NC(=O)[C@H](CO)NC(=O)CNC1=O [CNP-22]
hydrolysis of NEP cleavage sites (NEP): all possible sites were unexpectedly hydrolyzed | half-life [5]: ~2.6 min | Kd (NPR-C): 0.011 to 0.14 nM | Kd (NPR-B [6]): 0.007 to 0.03 nM
